Laboratory results taken from patent US9499561B2, “Fused pyrimidine compound, and preparation method, intermediate, composition, and uses thereof” (Shanghai Yingli Science and Technology Co., Ltd., priority 2012, dated 2016).

Tests used:
[1] = target: PI3Kα (Homo sapiens (Human), UniProt P42336); assay: PI3Kα enzymatic inhibitory activity IC50 assay (Caliper Reader); type: biochemical
Description: (§1) Biological Effect Example 1 PI3Kα and PI3Kδ Enzymatic Inhibitory Activity IC50 Assay • 1. Buffer preparation: 50 mM HEPES, pH 7.5, 3 mM MgCl2, 1 mM EGTA, 100 mM NaCl, 0.03% CHAPS. • 2. Compound was formulated in 100% DMSO in a concentration gradient, deposited to a 384-well plate to make final DMSO concentration of 1%. • 3. PI3Kα and PI3Kδ enzymes were diluted to be the optimum concentration with the following buffer: 50 mM HEPES, pH 7.5, 3 mM MgCl2, 1 mM EGTA, 100 mM NaCl, 0.03% CHAPS, 2 mM DTT. Transferred to a 384-well plate and incubated with the compound for a certain time. • 4. […] The reaction was performed in a 384-well plate for 1 h at room temperature for PI3Kα and 2 hrs at room temperature for PI3Kδ. • 5. Read the conversion rate using Caliper Reader, and calculate the inhibition rate as the average of two tests.

[2] = target: PI3Kδ (Homo sapiens (Human), UniProt O00329); assay: PI3Kδ enzymatic inhibitory activity IC50 assay (Caliper Reader); type: biochemical
Sequence of PI3Kδ (O00329 whole entry): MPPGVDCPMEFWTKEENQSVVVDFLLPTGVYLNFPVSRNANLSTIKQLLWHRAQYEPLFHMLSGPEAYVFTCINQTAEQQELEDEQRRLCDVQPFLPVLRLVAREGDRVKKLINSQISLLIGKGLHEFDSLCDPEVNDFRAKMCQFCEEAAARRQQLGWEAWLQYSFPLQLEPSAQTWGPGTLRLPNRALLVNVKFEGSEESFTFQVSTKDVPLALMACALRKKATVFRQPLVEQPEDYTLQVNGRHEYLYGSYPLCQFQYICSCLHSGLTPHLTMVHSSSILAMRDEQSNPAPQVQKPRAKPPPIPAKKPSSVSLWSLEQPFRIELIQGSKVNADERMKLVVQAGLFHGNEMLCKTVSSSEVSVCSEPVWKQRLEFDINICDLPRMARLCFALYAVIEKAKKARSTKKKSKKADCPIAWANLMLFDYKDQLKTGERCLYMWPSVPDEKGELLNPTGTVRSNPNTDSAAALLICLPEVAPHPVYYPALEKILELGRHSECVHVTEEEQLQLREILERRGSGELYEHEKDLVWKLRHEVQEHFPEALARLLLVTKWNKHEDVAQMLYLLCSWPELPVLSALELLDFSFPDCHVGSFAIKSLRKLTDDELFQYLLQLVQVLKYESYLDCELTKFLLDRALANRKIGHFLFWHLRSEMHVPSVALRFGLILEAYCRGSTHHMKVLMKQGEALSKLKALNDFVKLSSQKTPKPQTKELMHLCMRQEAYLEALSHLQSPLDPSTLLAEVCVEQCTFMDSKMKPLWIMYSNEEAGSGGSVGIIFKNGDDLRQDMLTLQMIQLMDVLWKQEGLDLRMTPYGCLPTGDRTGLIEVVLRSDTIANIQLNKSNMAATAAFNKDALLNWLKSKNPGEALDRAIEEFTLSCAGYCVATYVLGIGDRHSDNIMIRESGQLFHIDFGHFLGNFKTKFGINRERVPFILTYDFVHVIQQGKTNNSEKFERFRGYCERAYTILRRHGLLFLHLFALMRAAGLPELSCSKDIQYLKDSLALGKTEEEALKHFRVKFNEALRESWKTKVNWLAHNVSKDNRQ
Sequence of PI3Kδ (P27986 whole entry partner): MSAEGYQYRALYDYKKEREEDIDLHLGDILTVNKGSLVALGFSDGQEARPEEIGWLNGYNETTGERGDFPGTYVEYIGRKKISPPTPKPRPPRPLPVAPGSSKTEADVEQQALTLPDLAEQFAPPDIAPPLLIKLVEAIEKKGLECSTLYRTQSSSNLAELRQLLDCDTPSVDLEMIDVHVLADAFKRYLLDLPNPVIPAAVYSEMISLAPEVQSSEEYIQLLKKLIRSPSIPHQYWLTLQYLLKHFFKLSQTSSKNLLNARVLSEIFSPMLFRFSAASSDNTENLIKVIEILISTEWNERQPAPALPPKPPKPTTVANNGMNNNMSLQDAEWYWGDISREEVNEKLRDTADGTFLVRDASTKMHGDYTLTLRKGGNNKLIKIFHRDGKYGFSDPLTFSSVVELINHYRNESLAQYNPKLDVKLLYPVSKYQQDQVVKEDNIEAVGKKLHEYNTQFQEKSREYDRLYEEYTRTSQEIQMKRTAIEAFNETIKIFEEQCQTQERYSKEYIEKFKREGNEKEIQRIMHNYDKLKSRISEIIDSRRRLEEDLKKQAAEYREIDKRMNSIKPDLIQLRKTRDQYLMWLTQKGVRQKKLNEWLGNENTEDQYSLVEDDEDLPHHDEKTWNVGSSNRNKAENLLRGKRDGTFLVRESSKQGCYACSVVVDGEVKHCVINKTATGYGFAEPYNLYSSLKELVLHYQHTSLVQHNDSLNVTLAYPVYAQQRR
Description: as §1

[3] = test system: A549; assay: Cell proliferation inhibition assay (MTT), A549; type: cell-based; conditions: 72 hrs
Description: (§2) Cancer cell lines (A549, PC3, or […]) in the logarithmic growth phase were plated at a density of about 3,000 per well in 96-well plates, 90 μL/well, using double wells for each concentration. Control wells containing corresponding concentration of vehicle and without cells were also prepared. After 24 hrs, positive control compound and example compounds were added to make 10 μL/well and final DMSO concentration of 0.5%. The cells were incubated with compounds for 72 hrs in the presence of 10% Invitrogen fetal bovine serum, 37° C., 5% CO2. 5 mg/mL MTT solution was added to make 10 μL/well, and incubated for 4 hours at 37° C. A ddH2O solution (10% SDS, 5% isobutanol, 10 mmol/L HCl) was added to make 100 μL/well and incubated overnight at 37° C.

[4] = test system: PC3; assay: Cell proliferation inhibition assay (MTT), PC3; type: cell-based; conditions: 72 hrs
Description: as §2

[5] = test system: U87-MG; assay: Cell proliferation inhibition assay (MTT), U87-MG; type: cell-based; conditions: 72 hrs
Description: as §2

[6] = test system: malignant glioma cell U87MG xenograft; assay: Growth inhibition of malignant glioma cell U87MG xenograft in nude mice; type: in vivo; conditions: for TGI: 20 days; for Tumor size D 0: day 0; for Tumor size D 20: day 20
Description: (§3) Groups of nude mice were implanted subcutaneously in the right hind back with 4×10^6 U87MG cells. Start dosing when mean tumor volume reached approximately 150 (100-200) mm^3. Grouping method: before dosing, animals were weighted, tumor sizes were measured, and randomized according to the tumor size (randomized block design), 8 mice per group. A solvent (0.5% CMC-Na+0.2% Tween-80) was dosed once daily by oral gavage for solvent control group, and pre-determined dose of test compound was dosed once daily by oral gavage for a dosing group, for 20 consecutive days.
(§4) Tumor diameters were measured twice a week with a vernier caliper. Tumor volume was calculated with formula: V=0.5a×b^2, a and b represent longer and shorter diameter of tumor. […] Meanwhile, the weight of nude mice in each group was weighed twice weekly for a preliminary evaluation of compound toxicity.

[7] = Body weight of nude mice in the U87MG xenograft study, preliminary evaluation of compound toxicity; type: in vivo; conditions: for Body weight D 0: day 0; for Body weight D 20: day 20
Description: as §3, §4

[8] = 20 mg/kg once daily oral gavage
[9] = 50 mg/kg once daily oral gavage
[10] = 150 mg/kg once daily oral gavage
[11] = 25 mg/kg once daily oral gavage

Sequence of PI3Kα (P42336 whole entry): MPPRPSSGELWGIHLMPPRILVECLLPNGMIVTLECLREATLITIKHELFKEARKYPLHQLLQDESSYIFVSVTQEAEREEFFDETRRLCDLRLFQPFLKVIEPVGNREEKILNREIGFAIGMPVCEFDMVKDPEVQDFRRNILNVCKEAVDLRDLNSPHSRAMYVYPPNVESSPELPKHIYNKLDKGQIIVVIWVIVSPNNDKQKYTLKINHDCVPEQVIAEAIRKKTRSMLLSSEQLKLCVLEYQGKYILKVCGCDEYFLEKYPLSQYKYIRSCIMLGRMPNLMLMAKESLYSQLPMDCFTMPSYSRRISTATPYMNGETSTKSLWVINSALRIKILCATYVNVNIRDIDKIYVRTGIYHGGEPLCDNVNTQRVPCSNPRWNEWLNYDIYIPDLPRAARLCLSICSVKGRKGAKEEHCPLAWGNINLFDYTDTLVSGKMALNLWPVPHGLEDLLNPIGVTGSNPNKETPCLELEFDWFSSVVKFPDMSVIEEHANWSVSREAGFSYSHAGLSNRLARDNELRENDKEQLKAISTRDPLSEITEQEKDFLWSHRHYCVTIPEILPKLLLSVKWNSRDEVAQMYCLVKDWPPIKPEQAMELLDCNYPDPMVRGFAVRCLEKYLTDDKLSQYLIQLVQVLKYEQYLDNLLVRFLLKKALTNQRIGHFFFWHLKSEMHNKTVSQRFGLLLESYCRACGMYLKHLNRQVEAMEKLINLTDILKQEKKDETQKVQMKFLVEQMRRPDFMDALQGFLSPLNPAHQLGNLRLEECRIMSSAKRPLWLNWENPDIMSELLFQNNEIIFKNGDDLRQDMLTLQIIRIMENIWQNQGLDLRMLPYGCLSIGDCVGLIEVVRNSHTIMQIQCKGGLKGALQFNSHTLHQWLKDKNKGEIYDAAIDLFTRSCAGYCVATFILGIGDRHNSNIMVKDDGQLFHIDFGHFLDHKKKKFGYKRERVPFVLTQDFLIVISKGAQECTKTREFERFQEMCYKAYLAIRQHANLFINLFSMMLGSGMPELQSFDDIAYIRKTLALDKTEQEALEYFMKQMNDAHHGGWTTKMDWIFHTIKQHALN
Sequence of PI3Kα (P27986 whole entry partner): as the sequence (P27986 whole entry partner) above

SMILES | IC50 [1] | IC50 [2] | IC50 [3] | IC50 [4] | IC50 [5] | also measured
CC(C)(O)C1CCN(Cc2csc3c(-c4cnc(N)nc4)nc(N4CCOCC4)nc23)CC1 [Compound 17] | 245 nM | 65.4 nM | 4820 nM | 5390 nM | 7810 nM | –
C[C@H](O)C(=O)N1CCN(Cc2csc3c(-c4cnc(N)nc4)nc(N4CCOCC4)nc23)CC1 [Compound 18] | 12 nM | 12.6 nM | 3640 nM | 2310 nM | 8870 nM | –
C[C@@H](O)C(=O)N1CCN(Cc2csc3c(-c4cccc5[nH]ncc45)nc(N4CCOCC4)nc23)CC1 [Compound 23] | 202 nM | 16 nM | – | – | – | –
Cc1sc2c(-c3cnc(N)nc3)nc(N3CCOCC3)nc2c1CN1CCN(C(=O)[C@H](C)O)CC1 [Compound 24] | 18.9 nM | 8.3 nM | 2740 nM | 2070 nM | 9360 nM | –
Cc1sc2c(-c3cnc(N)nc3)nc(N3CCOCC3)nc2c1CN1CCN(C(=O)[C@@H](C)O)CC1 [Compound 25] | 56 nM | 13 nM | 6680 nM | 3060 nM | 11300 nM | –
O=C(CO)N1CCN(Cc2csc3c(-c4cccc5[nH]ncc45)nc(N4CCOCC4)nc23)CC1 [Compound 26] | 141 nM | 41 nM | 9330 nM | 3280 nM | 19700 nM | –
C[C@H](O)C(=O)N1CCN(Cc2csc3c(-c4cccc5[nH]ncc45)nc(N4CCOCC4)nc23)CC1 [Compound 27] | 76 nM | 18 nM | – | – | – | –
Nc1ncc(-c2nc(N3CCOCC3)nc3c(CN4CCN(C(=O)CO)CC4)csc23)cn1 [Compound 28] | 24 nM | 38 nM | 2600 nM | 1940 nM | 4460 nM | –
Cc1sc2c(-c3cnc(N)nc3)nc(N3CCOCC3)nc2c1CN1CCN(C(=O)CO)CC1 [Compound 29] | 18 nM | 7 nM | 2700 nM | 1490 nM | 3740 nM | TGI [6, 8]: 88.38%; Tumor size D 0 [6, 8]: 148.62 mm^3; Tumor size D 20 [6, 8]: 232.84 mm^3; TGI [6, 9]: 102.88%; Tumor size D 0 [6, 9]: 151.36 mm^3; Tumor size D 20 [6, 9]: 130.48 mm^3; TGI [6, 10]: 113.86%; Tumor size D 0 [6, 10]: 148.16 mm^3; Tumor size D 20 [6, 10]: 47.70 mm^3; ability to inhibit tumor growth compared with GDC-0941 (in words) ([6]; U87MG xenograft in nude mice): significantly better than GDC-0941; in vivo anti-tumor activity (in words) ([6]; U87MG xenograft in nude mice): strong in vivo anti-tumor activity; Body weight D 0 [7, 8]: 22.40 g; Body weight D 20 [7, 8]: 22.69 g; Body weight D 0 [7, 9]: 22.21 g; Body weight D 20 [7, 9]: 21.99 g; Body weight D 0 [7, 10]: 22.76 g; Body weight D 20 [7, 10]: 20.62 g; tolerability / toxic side effects (in words) ([7]; high dose (150 mg/kg)): the tested mice can still torelate even the high dose
Cc1sc2c(-c3cccc4[nH]ncc34)nc(N3CCOCC3)nc2c1CN1CCN(S(C)(=O)=O)CC1 [Compound 30] | 262 nM | 60.4 nM | – | – | – | –
Nc1ncc(-c2nc(N3CCOCC3)nc3ccoc23)cn1 [Compound 31] | 26 nM | 290 nM | – | – | – | –
CN(Cc1csc2c(-c3cnc(N)nc3)nc(N3CCOCC3)nc12)C(=O)CO [Compound 32] | 32 nM | – | – | – | – | –
Cc1sc2c(-c3cnc(N)nc3)nc(N3CCOCC3)nc2c1CN1CCN(CCO)CC1 [Compound 36] | 157 nM | 56 nM | – | – | – | –
CS(=O)(=O)N1CCN(Cc2cc3nc(-c4cccc5[nH]ncc45)nc(N4CCOCC4)c3s2)CC1 [GDC-0941, reference compound] | – | – | – | – | – | TGI [6, 11]: 57.65%; Tumor size D 0 [6, 11]: 149.86 mm^3; Tumor size D 20 [6, 11]: 456.64 mm^3; TGI [6, 9]: 66.07%; Tumor size D 0 [6, 9]: 150.72 mm^3; Tumor size D 20 [6, 9]: 396.57 mm^3; Body weight D 0 [7, 11]: 22.24 g; Body weight D 20 [7, 11]: 23.64 g; Body weight D 0 [7, 9]: 22.47 g; Body weight D 20 [7, 9]: 23.57 g

More lines, main results first:

IC50 [1] | IC50 [2] | IC50 [3] | IC50 [4] | IC50 [5] | SMILES | also measured
57 nM | 62 nM | 4640 nM | 6110 nM | 7410 nM | CS(=O)(=O)N1CCN(Cc2csc3c(-c4cccc5[nH]ncc45)nc(N4CCOCC4)nc23)CC1 [Compound 6] | –
13.1 nM | 28.3 nM | 6440 nM | 10100 nM | 12200 nM | Cc1nc(N)ncc1-c1nc(N2CCOCC2)nc2c(CN3CCN(S(C)(=O)=O)CC3)csc12 [Compound 11] | –
232 nM | 190 nM | – | – | – | CS(=O)(=O)N1CCN(Cc2csc3c(-c4ccc(N)nc4)nc(N4CCOCC4)nc23)CC1 [Compound 12] | –
265 nM | 327 nM | – | – | – | CS(=O)(=O)N1CCN(Cc2csc3c(-c4cccc(O)c4)nc(N4CCOCC4)nc23)CC1 [Compound 13] | –
104 nM | 200 nM | – | – | – | CS(=O)(=O)N1CCN(Cc2csc3c(-c4cncnc4)nc(N4CCOCC4)nc23)CC1 [Compound 15] | –
51.4 nM | 31.9 nM | 3990 nM | 2610 nM | 8080 nM | C[C@@H](O)C(=O)N1CCN(Cc2csc3c(-c4cnc(N)nc4)nc(N4CCOCC4)nc23)CC1 [Compound 19] | –
46.2 nM | 52 nM | – | – | – | CC(C)(O)C(=O)N1CCN(Cc2csc3c(-c4cnc(N)nc4)nc(N4CCOCC4)nc23)CC1 [Compound 20] | –
35 nM | 4.7 nM | – | – | – | Cc1nc(N)ncc1-c1nc(N2CCOCC2)nc2c(CN3CCN(C(=O)[C@H](C)O)CC3)csc12 [Compound 21] | –
77 nM | 11 nM | – | – | – | Cc1nc(N)ncc1-c1nc(N2CCOCC2)nc2c(CN3CCN(C(=O)[C@H](C)O)CC3)csc12 [Compound 22] | –
